≈ marks a conversion by molar mass, not a printed value.
Tested on: K. pneum. 1082 E
Experiment: Minimum inhibiting concentration, serial dilution test in the microtiter system
Format: cell-based
Settings: Klebsiella pneumoniae, 37° C., 18 to 20 hours
Method: (§1) These tests were performed using the serial dilution test in the microtiter system. The effect of the test compound on bacteriostasis was tested in a liquid medium at the following concentrations: 128, 64, 32, 16, 8, 4, 2, 1, 0.5, 0.25, 0.12 and 0.06 μgm/ml. The nutrient medium consisted of 10 gm of peptone, 8 gm of meat extract oxoid, 3 gm of sodium chloride, and 2 gm of sec. sodium phosphate diluted with distilled water to […] (pH 7.2-7.4). The age of the primary cultures was approximately 20 hours. The standardization of the bacteria suspension was effected using a photometer according to the method of Eppendorf (test tube .phi. 14 mm, filter 546 nm), using for comparison a barium sulfate suspension formed by the addition of 3.0 ml of 1% barium chloride solution to 97 ml of 1% sulfuric acid. After standardization, the test microorganisms were further diluted to a concentration of 1:1500, using a sodium chloride solution.
(§2) 16 mgm of the particular test compound were put into a 10 ml measuring flask, and the flask was subsequently filled to the mark with the solvent. The further dilution series was standardized with distilled water or the appropriate solvent.
(§3) The depressions of the microtiter plates were filled with 0.2 ml of nutrient medium. 0.01 ml of the appropriate test compound solution was then added, followed by inoculation with 0.1 ml (1 drop) of the standardized bacteria suspension. The bacteria were incubated at 37° C. for 18 to 20 hours. Control tests using only the solvent were carried out simultaneously.
(§4) The readings were made macroscopically to determine the minimum inhibitory concentration (the lowest still bacteriostatically effective concentration).

SMILES	MIC [µg/mL]
CO[C@@]1(NC(=O)C(NC(=O)Nc2cnc(NCc3ccco3)nc2O)c2ccccc2)C(=O)N2C(C(=O)O)=C(CSc3nnnn3C)CS[C@@H]21 (some centres unmarked) [Compound 14]	0.25 (≈ 0.345 µM)
Cn1nnnc1SCC1=C(C(=O)O)N2C(=O)[C@@H](NC(=O)C(NC(=O)Nc3cnc(NCc4ccco4)nc3O)c3csc(N)n3)[C@H]2SC1 (some centres unmarked) [Compound 1]	16 (≈ 22.4 µM)

Tested on: Pseud. BC 19
Experiment: as above
Format: cell-based
Settings: Pseudomonas aeruginosa, 37° C., 18 to 20 hours
Method: as §1, §2, §3, §4
(§5) Staphylococcus aureus SG 511, Escherichia coli ATCC 11 775, Pseudomonas aeruginosa hamburgensis and Pseudomonas aeruginosa BC 19, Serratia marcescens ATCC 13 800, Klebsiella pneumoniae ATCC 10031 and BC 6, Proteus mirabilis BC 17, Proteus rettgeri BC 7, Enterobacter Cloaceae ATCC 13047 and E. coli R+TEM (β-lactamase carrier).

SMILES	MIC [µg/mL]
CO/N=C(\C(=O)N[C@@H]1C(=O)N2C(C(=O)O)=C(COC(N)=O)CS[C@H]12)c1ccco1 [Cefuroxim, reference compound]	> 128
CO[C@@]1(NC(=O)C(NC(=O)Nc2cnc(NCc3ccco3)nc2O)c2ccccc2)C(=O)N2C(C(=O)O)=C(CSc3nnnn3C)CS[C@@H]21 (some centres unmarked) [Compound 14]	8 (≈ 11.1 µM)
Cn1nnnc1SCC1=C(C(=O)O)N2C(=O)[C@@H](NC(=O)C(NC(=O)Nc3cnc(NCc4ccco4)nc3O)c3csc(N)n3)[C@H]2SC1 (some centres unmarked) [Compound 1]	16 (≈ 22.4 µM)

Tested on: Serr. marcesc. ATCC 13880
Experiment: as above
Format: cell-based
Settings: Serratia marcescens, ATCC13880, 37° C., 18 to 20 hours
Method: as §1, §2, §3, §4, §5

SMILES	MIC [µg/mL]
CO/N=C(\C(=O)N[C@@H]1C(=O)N2C(C(=O)O)=C(COC(N)=O)CS[C@H]12)c1ccco1 [Cefuroxim, reference compound]	8 (≈ 18.9 µM)
CO[C@@]1(NC(=O)C(NC(=O)Nc2cnc(NCc3ccco3)nc2O)c2ccccc2)C(=O)N2C(C(=O)O)=C(CSc3nnnn3C)CS[C@@H]21 (some centres unmarked) [Compound 14]	0.25 (≈ 0.345 µM)
Cn1nnnc1SCC1=C(C(=O)O)N2C(=O)[C@@H](NC(=O)C(NC(=O)Nc3cnc(NCc4ccco4)nc3O)c3csc(N)n3)[C@H]2SC1 (some centres unmarked) [Compound 1]	0.06 (≈ 0.0838 µM)

Tested on: E. coli R + TEM
Experiment: as above
Format: cell-based
Settings: Escherichia coli, read-out: Minimum inhibiting concentration (MIC)
Method: as §1, §2, §3, §4, §5

SMILES	MIC [µg/mL]
CO/N=C(\C(=O)N[C@@H]1C(=O)N2C(C(=O)O)=C(COC(N)=O)CS[C@H]12)c1ccco1 [Cefuroxim, reference compound]	4 (≈ 9.43 µM)
CO[C@@]1(NC(=O)C(NC(=O)Nc2cnc(NCc3ccco3)nc2O)c2ccccc2)C(=O)N2C(C(=O)O)=C(CSc3nnnn3C)CS[C@@H]21 (some centres unmarked) [Compound 14]	0.25 (≈ 0.345 µM)
Cn1nnnc1SCC1=C(C(=O)O)N2C(=O)[C@@H](NC(=O)C(NC(=O)Nc3cnc(NCc4ccco4)nc3O)c3csc(N)n3)[C@H]2SC1 (some centres unmarked) [Compound 1]	0.5 (≈ 0.699 µM)

Tested on: E. coli ATCC 11775
Experiment: as above
Format: cell-based
Settings: Escherichia coli, ATCC11775, 37° C., 18 to 20 hours
Method: as §1, §2, §3, §4, §5

SMILES	MIC [µg/mL]
CO/N=C(\C(=O)N[C@@H]1C(=O)N2C(C(=O)O)=C(COC(N)=O)CS[C@H]12)c1ccco1 [Cefuroxim, reference compound]	8 (≈ 18.9 µM)
CO[C@@]1(NC(=O)C(NC(=O)Nc2cnc(NCc3ccco3)nc2O)c2ccccc2)C(=O)N2C(C(=O)O)=C(CSc3nnnn3C)CS[C@@H]21 (some centres unmarked) [Compound 14]	0.12 (≈ 0.166 µM)
Cn1nnnc1SCC1=C(C(=O)O)N2C(=O)[C@@H](NC(=O)C(NC(=O)Nc3cnc(NCc4ccco4)nc3O)c3csc(N)n3)[C@H]2SC1 (some centres unmarked) [Compound 1]	0.03 (≈ 0.0419 µM)

Tested on: Staph. aureus SG 511
Experiment: as above
Format: cell-based
Settings: Staphylococcus aureus, SG511, 37° C., 18 to 20 hours
Method: as §1, §2, §3, §4, §5

SMILES	MIC [µg/mL]
CO/N=C(\C(=O)N[C@@H]1C(=O)N2C(C(=O)O)=C(COC(N)=O)CS[C@H]12)c1ccco1 [Cefuroxim, reference compound]	1 (≈ 2.36 µM)
CO[C@@]1(NC(=O)C(NC(=O)Nc2cnc(NCc3ccco3)nc2O)c2ccccc2)C(=O)N2C(C(=O)O)=C(CSc3nnnn3C)CS[C@@H]21 (some centres unmarked) [Compound 14]	0.5 (≈ 0.691 µM)
Cn1nnnc1SCC1=C(C(=O)O)N2C(=O)[C@@H](NC(=O)C(NC(=O)Nc3cnc(NCc4ccco4)nc3O)c3csc(N)n3)[C@H]2SC1 (some centres unmarked) [Compound 1]	1 (≈ 1.4 µM)

Tested on: Kl. pneum. ATCC 10031
Experiment: as above
Format: cell-based
Settings: Klebsiella pneumoniae, ATCC10031, 37° C., 18 to 20 hours
Method: as §1, §2, §3, §4, §5

SMILES	MIC [µg/mL]
CO/N=C(\C(=O)N[C@@H]1C(=O)N2C(C(=O)O)=C(COC(N)=O)CS[C@H]12)c1ccco1 [Cefuroxim, reference compound]	2 (≈ 4.71 µM)
CO[C@@]1(NC(=O)C(NC(=O)Nc2cnc(NCc3ccco3)nc2O)c2ccccc2)C(=O)N2C(C(=O)O)=C(CSc3nnnn3C)CS[C@@H]21 (some centres unmarked) [Compound 14]	0.25 (≈ 0.345 µM)
Cn1nnnc1SCC1=C(C(=O)O)N2C(=O)[C@@H](NC(=O)C(NC(=O)Nc3cnc(NCc4ccco4)nc3O)c3csc(N)n3)[C@H]2SC1 (some centres unmarked) [Compound 1]	0.06 (≈ 0.0838 µM)

Tested on: Kl. pneum. BC 6
Experiment: as above
Format: cell-based
Settings: Klebsiella pneumoniae, 37° C., 18 to 20 hours
Method: as §1, §2, §3, §4, §5

SMILES	MIC [µg/mL]
CO/N=C(\C(=O)N[C@@H]1C(=O)N2C(C(=O)O)=C(COC(N)=O)CS[C@H]12)c1ccco1 [Cefuroxim, reference compound]	4 (≈ 9.43 µM)
CO[C@@]1(NC(=O)C(NC(=O)Nc2cnc(NCc3ccco3)nc2O)c2ccccc2)C(=O)N2C(C(=O)O)=C(CSc3nnnn3C)CS[C@@H]21 (some centres unmarked) [Compound 14]	0.25 (≈ 0.345 µM)
Cn1nnnc1SCC1=C(C(=O)O)N2C(=O)[C@@H](NC(=O)C(NC(=O)Nc3cnc(NCc4ccco4)nc3O)c3csc(N)n3)[C@H]2SC1 (some centres unmarked) [Compound 1]	0.03 (≈ 0.0419 µM)

Tested on: Prot. mirab. BC 17
Experiment: as above
Format: cell-based
Settings: Proteus mirabilis, 37° C., 18 to 20 hours
Method: as §1, §2, §3, §4, §5

SMILES	MIC [µg/mL]
CO/N=C(\C(=O)N[C@@H]1C(=O)N2C(C(=O)O)=C(COC(N)=O)CS[C@H]12)c1ccco1 [Cefuroxim, reference compound]	0.5 (≈ 1.18 µM)
CO[C@@]1(NC(=O)C(NC(=O)Nc2cnc(NCc3ccco3)nc2O)c2ccccc2)C(=O)N2C(C(=O)O)=C(CSc3nnnn3C)CS[C@@H]21 (some centres unmarked) [Compound 14]	0.12 (≈ 0.166 µM)
Cn1nnnc1SCC1=C(C(=O)O)N2C(=O)[C@@H](NC(=O)C(NC(=O)Nc3cnc(NCc4ccco4)nc3O)c3csc(N)n3)[C@H]2SC1 (some centres unmarked) [Compound 1]	0.01 (≈ 0.014 µM)

Tested on: Ent. cloac. ATCC 13047
Experiment: as above
Format: cell-based, Enterobacter Cloaceae
Settings: Enterobacter, ATCC13047, 37° C., 18 to 20 hours
Method: as §1, §2, §3, §4, §5

SMILES	MIC [µg/mL]
CO/N=C(\C(=O)N[C@@H]1C(=O)N2C(C(=O)O)=C(COC(N)=O)CS[C@H]12)c1ccco1 [Cefuroxim, reference compound]	32 (≈ 75.4 µM)
CO[C@@]1(NC(=O)C(NC(=O)Nc2cnc(NCc3ccco3)nc2O)c2ccccc2)C(=O)N2C(C(=O)O)=C(CSc3nnnn3C)CS[C@@H]21 (some centres unmarked) [Compound 14]	1 (≈ 1.38 µM)
Cn1nnnc1SCC1=C(C(=O)O)N2C(=O)[C@@H](NC(=O)C(NC(=O)Nc3cnc(NCc4ccco4)nc3O)c3csc(N)n3)[C@H]2SC1 (some centres unmarked) [Compound 1]	0.25 (≈ 0.349 µM)

Tested on: Pseud. Hbg.
Experiment: as above
Format: cell-based, Pseudomonas aeruginosa hamburgensis
Settings: Pseudomonas aeruginosa, 37° C., 18 to 20 hours
Method: as §1, §2, §3, §4, §5

SMILES	MIC [µg/mL]
CO/N=C(\C(=O)N[C@@H]1C(=O)N2C(C(=O)O)=C(COC(N)=O)CS[C@H]12)c1ccco1 [Cefuroxim, reference compound]	> 128
CO[C@@]1(NC(=O)C(NC(=O)Nc2cnc(NCc3ccco3)nc2O)c2ccccc2)C(=O)N2C(C(=O)O)=C(CSc3nnnn3C)CS[C@@H]21 (some centres unmarked) [Compound 14]	8 (≈ 11.1 µM)
Cn1nnnc1SCC1=C(C(=O)O)N2C(=O)[C@@H](NC(=O)C(NC(=O)Nc3cnc(NCc4ccco4)nc3O)c3csc(N)n3)[C@H]2SC1 (some centres unmarked) [Compound 1]	16 (≈ 22.4 µM)

Tested on: E. coli ATCC 11775
Experiment: In vivo activity against experimental E. coli infection in mice
Set-up: species or system E. coli in female mice of the NMRI strain
Settings: Escherichia coli, ATCC11775, sc, 168 h; s.c. administration once, 1 hour after i.p. infection; dose at which 50% of the animals survive; 7 days
Method: A few compounds of the invention and cefuroxim were tested in vivo against experimental infections in mice. E. coli ATCC 11775 was used as the pathogenic bacteria. An intraperitoneal infection was induced with 0.2 ml of a 5% mucin suspension of the bacteria. This corresponds to approximately 1.4×10^6 E. coli bacteria per mouse. Female mice of the NMRI strain were divided into groups of 10 animals, of which 2 groups remained untreated while the remaining groups were treated with various doses of the particular cephalosporin according to the invention for the purpose of determining the ED50 (dose at which 50% of the animals survive). The treatment was applied once (1 hour after infection). The observation period was 7 days. The results of these tests are shown in Table III below, where the numbering of the compounds again corresponds to that used in Table I.

SMILES	ED50 [mg/kg]
CO/N=C(\C(=O)N[C@@H]1C(=O)N2C(C(=O)O)=C(COC(N)=O)CS[C@H]12)c1ccco1 [Cefuroxim, reference compound]	> 100
CO[C@@]1(NC(=O)C(NC(=O)Nc2cnc(NCc3ccco3)nc2O)c2ccccc2)C(=O)N2C(C(=O)O)=C(CSc3nnnn3C)CS[C@@H]21 (some centres unmarked) [Compound 14]	2.5 to 5
Cn1nnnc1SCC1=C(C(=O)O)N2C(=O)[C@@H](NC(=O)C(NC(=O)Nc3cnc(NCc4ccco4)nc3O)c3csc(N)n3)[C@H]2SC1 (some centres unmarked) [Compound 1]	0.8

Tested on: Prot. rettg.
Experiment: Minimum inhibiting concentration, serial dilution test in the microtiter system
Format: cell-based, Proteus rettgeri
Settings: Providencia rettgeri, 37° C., 18 to 20 hours
Method: as §1, §2, §3, §4, §5

SMILES	MIC [µg/mL]
CO/N=C(\C(=O)N[C@@H]1C(=O)N2C(C(=O)O)=C(COC(N)=O)CS[C@H]12)c1ccco1 [Cefuroxim, reference compound]	2 (≈ 4.71 µM)
CO[C@@]1(NC(=O)C(NC(=O)Nc2cnc(NCc3ccco3)nc2O)c2ccccc2)C(=O)N2C(C(=O)O)=C(CSc3nnnn3C)CS[C@@H]21 (some centres unmarked) [Compound 14]	1 (≈ 1.38 µM)
Cn1nnnc1SCC1=C(C(=O)O)N2C(=O)[C@@H](NC(=O)C(NC(=O)Nc3cnc(NCc4ccco4)nc3O)c3csc(N)n3)[C@H]2SC1 (some centres unmarked) [Compound 1]	0.06 (≈ 0.0838 µM)

From patent US4364944A, “Cephalosporins” (Dr. Karl Thomae Gesellschaft mit beschrankter Haftung, priority 1980, dated 1982)
